What was measured:
adult murine heart = test: Transthoracic echocardiography after T3/β1-adrenergic receptor blocker therapy; format: in vivo, mouse; settings: for Ejection fraction / FW diastole / FW systole / Fractional shortening / IVS diastole / IVS systole / LV end-diastolic dimension / LV end-systolic dimension / LV mass: adult 6-month-old mice, metoprolol 6 μg/g daily i.p. 19 days and/or T3 2 ng/g i.p. 5 daily injections, 2 weeks after cessation
Method: Approximately 6-month-old mice were used. […] On day-14 of this therapy, mice were additionally given 5 daily injections of T3 (2 ng/g, i.p.) or vehicle. At 2 and 4 weeks after the cessation of T3/β1-adrenergic receptor blocker mono- or combination therapy, the body weights of these mice were measured as well as their cardiac dimensions and function using transthoracic echocardiography.
Experiments were performed to determine whether reversal of cell cycle block using β1-blockade coupled with acute T3 treatment may be sufficient to expand the cardiomyocyte endowment of the adult murine heart. […] Two weeks after cessation of these therapies LV dimensions and contractility were analyzed by echocardiography as well as ventricular cardiomyocyte numbers.

[1] = system: ventricular cardiomyocytes; test: Ventricular cardiomyocyte numbers after T3/metoprolol therapy in adult mice; format: in vivo, mouse; settings: adult 6-month-old mice; metoprolol 6 μg/g daily i.p. 19 days and/or T3 2 ng/g i.p. 5 daily injections; 2 weeks after cessation
From the text: Digestion efficiencies were ˜98%. Cardiomyocytes in these cell suspensions, identified by their size and by rod shape, were counted using a hemocytometer. […]

cyclins D1, A2 and B1 = test: Acute in vivo T3 challenge: cyclin expression by immunoblotting; set-up: species or system mouse
Method: (§1) T3 was administered, intraperitoneally, to each mouse at the dose indicated. Vehicle was administered by the same route and animals thus treated served as controls. Phosphate buffered saline (PBS) was the vehicle for T3, and soybean oil (Sigma, S7381) was the vehicle for 4-hydroxytamoxifen. […] P7 and older mice were first anesthetized with 5% isoflurane and then hearts were harvested for further processing. Hearts were also collected at 12, 24 and 40 h after T3 or vehicle treatment and ventricular cardiomyocytes were prepared from the apex and base for immunoblotting, RT-qPCR or immunocytochemistry. Hearts were also collected at various ages after birth for immunoblotting, immunocytochemistry, immunohistochemistry and cardiomyocyte number estimation.
An acute in vivo T3 challenge was used to identify post-neonatal LV cardiomyocytes that retain proliferative capacity. Increases in myocardial cell cycle-promoting cyclins was explored as a surrogate for identifying cardiomyocytes that are able to enter the cell cycle.

LV cardiomyocytes [2] = test: Immunocytochemistry for S phase (EdU) and mitosis (pH3) after in vivo T3; set-up: species or system mouse
Method: as §1, with “4-hydroxytamoxifen. DUSP5 or β1-adrenergic receptor-specific siRNA or scrambled siRNA (control) was administered using in vivo-jetPEI®, (VWR, 89129-960).” for “4-hydroxytamoxifen.”
Experiments were performed to determine whether T3-stimulated cell cycle entry in LV apical cardiomyocytes ends in mitosis and cell replication.

[3] = system: ventricular cardiomyocytes; test: Ventricular cardiomyocyte count in early post-neonatal mice after T3; format: in vivo, mouse
Method: To determine the effect of T3 on the ventricular cardiomyocyte population in early post-neonatal mice, T3 daily (i. p.), was administered from P7 to P9. At P12, hearts were enzymatically disaggregated and cell suspensions created from the cardiac ventricles. Digestion efficiencies were ˜98%. Cardiomyocytes in these cell suspensions, identified by their size and by rod shape, were counted using a hemocytometer. T3 increased ventricular cardiomyocyte numbers by ˜18% (FIG. 2D), which indicates an average replication rate of 3.6%/day between P7 and P12.

[4] = system: IGF-1/IGF-1R, MEK1/2, ERK1/2; test: T3 proliferative signaling in P8 LV apical and basal cardiomyocytes (immunoblotting); format: in vivo, mouse
Method: as §1, with “4-hydroxytamoxifen. DUSP5 or β1-adrenergic receptor-specific siRNA or scrambled siRNA (control) was administered using in vivo-jetPEI®, (VWR, 89129-960).” for “4-hydroxytamoxifen.”
Proliferative signaling by growth factors involves Ras/Raf/mitogen-activated protein kinase (MAPK) kinase (MEK)/extracellular signal-regulated kinase (ERK) signaling. MEK1/2 activate ERK1/2 by phosphorylating T202 and Y204, which is required for ERK1/2 translocation to the nucleus. Sustained ERK1/2 phosphorylation in the nucleus activates multiple transcription factors ultimately resulting in effector protein synthesis and cell proliferation. A single dose of T3 was administered to P8 mice, and cardiomyocytes were isolated from the LV apex or base either immediately after T3 administration (0 h) or after 24 h. […] However, the fraction of nuclear ERK1/2 that remained phosphorylated at 24 h post-T3 treatment was ˜70% lower in LV basal cardiomyocytes (FIG. 4A).

LV cardiomyocytes [5] = settings: T3 daily over 3 days (P7-P9); same mouse heart
From the text: To determine if LV apical cardiomyocytes undergo cell replication, multicolor clonal analysis was used in double-transgenic Myh6-MerCreMer::Rosa26fs-Confetti mice to record the proliferative strategies of individual cardiomyocytes of the apex relative to those of the base.

[6] = LV apex cardiomyocytes, post-P8, in vivo T3
[7] = LV basal cardiomyocytes, in vivo T3

| SMILES | Ejection fraction (adult murine heart) | FW diastole (adult murine heart) | FW systole (adult murine heart) | Fractional shortening (adult murine heart) | IVS diastole (adult murine heart) | IVS systole (adult murine heart) | LV end-diastolic dimension (adult murine heart) | LV end-systolic dimension (adult murine heart) | LV mass (adult murine heart) | Cardiomyocyte numbers, (millions) [n] [1] | further results |
| --- | --- | --- | --- | --- | --- | --- | --- | --- | --- | --- | --- |
| COCCc1ccc(OCC(O)CNC(C)C)cc1 (stereo not drawn) [Metoprolol, metoprolol succinate] | 55.4 ± 1.8% | 0.92 ± 0.02 mm | 1.20 ± 0.03 mm | 23.4 ± 0.6% | 0.96 ± 0.02 mm | 1.29 ± 0.02 mm | 3.53 ± 0.07 mm | 2.71 ± 0.06 mm | 113 ± 2 mg | 2.44 ± 0.026 millions | – |
| N[C@@H](Cc1cc(I)c(Oc2ccc(O)c(I)c2)c(I)c1)C(=O)O [T3, 3,3′,5-triiodo-L-thyronine] | 55.7 ± 1.4^NS % | 0.87 ± 0.01^NS mm | 1.19 ± 0.03^NS mm | 24.8 ± 1.4^NS % | 0.94 ± 0.01^NS mm | 1.29 ± 0.02^NS mm | 3.60 ± 0.03^NS mm | 2.70 ± 0.05^NS mm | 110 ± 2^NS mg | 2.33 ± 0.039^NS millions | effect on body weight, ventricular cardiomyocyte numbers, LV mass or any measured LV dimension (adult murine heart; vehicle pretreated adult mice): did not significantly affect; T3 increase of cyclins D1/A2/B1, more in apical than in basal cardiomyocytes (cyclins D1, A2 and B1; P8 hearts, LV apical vs basal cardiomyocytes): 2-5 fold; expression of cyclins D1, A2 and B1, higher in the LV apex than in the base (cyclins D1, A2 and B1; P8 mice, 40 h after in vivo T3 challenge, LV myocardium): 2.5-100 fold; T3 effect on cyclins in apical or basal cardiomyocytes (cyclins D1, A2 and B1; P16 cardiomyocytes): did not increase cyclins; T3 effect on cyclins D1/A2/B1 in LV apical and basal cardiomyocytes (cyclins D1, A2 and B1; neonatal hearts): increased cyclins D1/A2/B1 similarly in LV apical and basal cardiomyocytes; T3-stimulated expression of cyclins D1, A2 and B1, lower in basal cardiomyocytes (cyclins D1, A2 and B1; post-neonatal basal vs apical cardiomyocytes, 40 h after T3): 2-3 fold; number of cardiomyocytes in S phase (EdU+) (LV cardiomyocytes [2]; [6]): increased the number of cardiomyocytes in S phase; number of cardiomyocytes in mitosis (pH3+) (LV cardiomyocytes [2]; [6]): increased; S phase in LV basal cardiomyocytes (LV cardiomyocytes [2]; [7]): an increase in S phase was observed; mitosis in LV basal cardiomyocytes (LV cardiomyocytes [2]; [7]): did not enter mitosis; increase in ventricular cardiomyocyte numbers ([3]; T3 daily i.p. P7 to P9, counted at P12): ~18%; average replication rate ([3]; between P7 and P12): 3.6 %/day; fraction of nuclear ERK1/2 that remained phosphorylated, lower in LV basal cardiomyocytes ([4]; 24 h post-T3 treatment, P8 mice, basal vs apical): ~70%; MEK1/2 phosphorylation and nuclear translocation of ERK1/2 ([4]; P8 mice, single dose T3, 24 h, similarly in apical and basal cardiomyocytes): increased MEK1/2 phosphorylation; T3-stimulated expression of IGF-1/IGF-1R ([4]; post-neonatal basal vs apical cardiomyocytes): comparable in basal and apical cardiomyocytes; increase in frequency of monochromatic cardiomyocyte clusters in the LV apex relative to the base (LV cardiomyocytes [5]): ~6.5 fold |
